Test results published in patent US20140127136A1, “LIPOSOMES USEFUL FOR DRUG DELIVERY TO THE BRAIN” (Merrimack Pharmaceuticals, Inc., priority 2004, published 2014).
Values joined by “and” are separate entries in the source; they are usually repeats but may differ in a detail not shown here. Identical values can stand only once. Counter-ions that a name gives are not always drawn. Like-named read-outs stand apart in the source and are kept apart here.

Tests used:
[1] = mouse, 0.1 mg/ml
[2] = test system: orthotopic U87 tumors; conditions: 60 μg (3 mg/ml), single CED 5 d after implantation
[3] = in vivo; conditions: Sprague-Dawley, rat, brain, other: CED infusion into the brain, 0.06 mg
[4] = test system: human breast carcinoma BT-474 xenografts; test: Antitumor efficacy of CPT-11 liposomes (TEA-Pn) against breast cancer xenografts in nude mice; format: in vivo, NCR nu/nu mice; conditions: 50 mg CPT-11/kg i.v. on days 14, 18, 21, 25
[5] = MTD seeking study of CPT-11 formulations, single i.v. injection; format: in vivo, Swiss Webster mice
[6] = Toxicity of free and liposomal irinotecan following CED delivery into the brain; format: in vivo, rats; conditions: for brain tissue toxicity 60 days after CED: single 20 μl CED infusion
Method: Ls-CPT-11 was prepared and the CED procedure used were described in Example 68. To evaluate toxicity, healthy rats received a single infusion of free, i.e., dissolved, or Ls-CPT-11 via CED. […] Rats were euthanized 60 days after CED treatments, and their brains were harvested, sectioned and stained for standard pathology xamination.
No systemic toxicities, including weight loss or diarrhea, were observed following CED of any of the treatments. Furthermore, no gross neurologic or behavioral changes were noted post-treatment. Indeed, no dose-limiting toxicities for nanoliposomal CPT-11 were identified up to 1.6 mg/rat in a single 0.02 mL infusion, which represented the highest dose achieved without further concentrationg the liposomal sample.

[7] = test system: subcutaneous xenografts of human colon carcinoma (HT-29); test: Antitumor activity of free and liposomal CPT-11 against HT-29 xenografts; format: in vivo, NCR nu/nu athymic nude mice; conditions: 50 mg/kg per injection
[8] = Pharmacokinetics of irinotecan formulations administered by CED into normal brain tissue; conditions: 3 mg/ml
[9] = inj. dose 60 mg/kg, single i.v., individual mice, hydrochloride, 60 mg/kg
[10] = inj. dose 70 mg/kg, single i.v., individual mice, hydrochloride, 70 mg/kg
[11] = inj. dose 80 mg/kg, single i.v., individual mice, hydrochloride, 80 mg/kg

## CCc1c2c(nc3ccc(OC(=O)N4CCC(N5CCCCC5)CC4)cc13)-c1cc3c(c(=O)n1C2)COC(=O)[C@]3(O)CC [free CPT-11, Irinotecan hydrochloride]
50 mg/kg per injection (free: permanent; liposomal: transient)
  weight loss during treatment, % of pre-treatment value: about 6%
50 mg/kg, for about one hour after injection
  condition after drug injection: temporary morbidity
[1]; 2 h
  CPT-11, % carboxylate: 35.2 ± 1.9%
  CPT-11, % lactone: 1.9 ± 0.4%
  SN-38, % carboxylate: 58.4 ± 2.1%
  SN-38, % lactone: 4.4 ± 0.1%
[1]; 12 h
  CPT-11, % carboxylate: 11.5 ± 0.9%
  CPT-11, % lactone: <0.1%
  SN-38, % carboxylate: 78.6 ± 1.3%
  SN-38, % lactone: 9.9 ± 0.8%
[1]; 24 h
  CPT-11, % carboxylate: <0.1%
  CPT-11, % lactone: <0.1%
  SN-38, % carboxylate: 77.5 ± 9.8%
[2]
  Median survival: 28.5 days
[3]
  MRT: 9.6 h
[4]
  average tumor size at day 46: about 1,000 mm^3
  effect on tumor growth: reduced the rate of tumor growth
[5]; Swiss Webster, mouse, in vivo, iv, acute, single i.v. injection, mice
  MTD at 7 days: 80 mg/kg
[5]; [9]
  Animal body weight at day 1 post injection: 20.4 g and 19.1 g and 20.0 g and 18.7 g
  Animal body weight at day 2 post injection: 20.9 g and 19.4 g
  Animal body weight at day 4 post injection: 22.1 g and 20.2 g
  Animal body weight at day 6 post injection: 22.2 g and 20.4 g
  Animal body weight at day 11 post injection: 22.5 g and 21.1 g
[5]; [10]
  Animal body weight at day 1 post injection: 20.0 g and 21.8 g
  Animal body weight at day 2 post injection: 20.6 g and 22.4 g
[5]; [11]
  Animal body weight at day 1 post injection: 19.9 g and 20.8 g
  Animal body weight at day 2 post injection: 20.1 g and 21.1 g
  Animal body weight at day 3 post injection: 19.3 g and 20.6 g (2×) and 21.4 g and 21.9 g
[5]; inj. dose 90 mg/kg, single i.v., individual mice
  outcome after injection: died 1-2 min after injection
[5]; inj. dose 100 mg/kg, single i.v., individual mice
  outcome after injection: died 1-2 min after injection
[6]; 60 μg
  brain tissue toxicity 60 days after CED: no apparent tissue toxicity
[6]; 0.4 mg/rat
  brain tissue toxicity 60 days after CED: extensive tissue necrosis within the CNS
[6]; CED into rat brain
  highest tolerable dose: 60 μg/infusion
[7]
  animals tumor-free at the end of study without signs of regrowth: no animals without tumor regrowth
  effect on the tumor growth: only minor effect on the tumor growth
[7]; 4 i.v. injections at intervals of 4 days
  Average tumor doubling time: 4.8 days
[8]
  AUC∞: 16.4 µg·days/g
